Measurements as given in EP4563148A1, “MEDICINE FOR TREATING CANCER” (Science Technology Interact Co., Ltd., priority 2022, dated 2024).

Tests used:
Format in all cases: cell-based, human
KYSE270 cells = experiment: Cell viability of KYSE270 cells with siRNA-reduced homologous recombination activity; settings: KYSE270 cells with expression of RAD51 suppressed by siRNA, compared with control; 5 days of culture
Method: (§1) KYSE270 cells and KYSE30 cells (human esophageal squamous cell carcinoma cell line) were purchased from JCRB Cell Bank, National Institutes of Biomedical Innovation, Health and Nutrition (Osaka, Japan). KYSE270 cells and KYSE30 cells were cultured in a medium in which RPMI1640 and Ham's F12 medium (both of which were manufactured by FUJIFILM Wako Pure Chemical Corporation, Osaka, Japan) were mixed in equal amounts and 5% FBS was added at 37°C in the presence of 5% CO2.
(§2) HeLa cell suspension adjusted to 5000 cells/ml was seeded in a 96 well plate at 100 ul/well, and the next day, siRNA was introduced, followed by addition of Olaparib or Nicaraven. One hundred twenty hours after gene introduction and Olaparib addition, HeLa cells were replaced in a medium to which Presto Blue assay (Thermo-Fisher Scientific, Waltham, MA, USA) had been added so as to have a final concentration of 5%, followed by reaction in the presence of 5% CO2 at 37°C for 1 hour, and then fluorescence was measured under conditions of an excitation wavelength of 520 nm and a fluorescence wavelength of 580 to 640 nm using GloMax (registered trademark) Explorer Multimode Microplate Reader (Promega, Madison, WI, USA).
Fig. 6A. […] After 5 days of culture, cell viability was measured. […]

KYSE30 cells = experiment: Cell viability of KYSE30 cells with siRNA-reduced homologous recombination activity; settings: KYSE30 cells with expression of RAD51 suppressed by siRNA, compared with control
Method: as §1, §2
Fig. 7. […]

HeLa cells = experiment: Drug sensitivity test: cell viability (Presto Blue) of HeLa cells with siRNA-reduced homologous recombination activity; settings: 96 hours of culture
Method: as §2
After 96 hours of culture, cell viability was measured.
Figs. 1B and 1C show the measurement results of cell viability.

γ-H2AX [1] = experiment: Western blot of γ-H2AX after ionizing radiation; settings: HeLa cells, drug 30 minutes before 10 Gy of X-ray, collected two hours later
Method: The culture medium for the cells seeded on a 3.5 cm dish was removed, followed by washing with 1x PBS and then direct dissolution in a 1x Sodium dodecyl sulfate (SDS) sample buffer (2% SDS, 1% 2-Mercaptoethanol [2-ME], 50 mM Tris-HCL [pH 6.8], 12% glycerol, 1% Bromophenol blue [BPB]). Thereafter, the solution was subjected to ultrasonic treatment with Vibra cell (Sonics & Materials Inc., CT, USA) and heated at 95°C for 5 minutes to prepare a whole cell extract. For Western blotting, electrophoresis was performed through a 6%, 10% SDS polyacrylamide gel, and […] was done to a PVDF membrane (Millipore Corporation Darmstadt, Germany) for 1.5 h, followed by blocking with 5% skim milk-PBS for 3 to 16 h. After blocking, a primary antibody diluted with a 0.5% BSA/TBS-T or Can get signal solution (TOYOBO, Osaka, Japan) was allowed to react overnight at 4°C. After washing 3 times with PBS-T for 10 minutes, a secondary antibody diluted with 0.5% BSA/TBS-T was allowed to react at room temperature for 1 to 3 hours. […]
The day after HeLa cells were seeded, Nicaraven was added, and 30 minutes later, the cells were irradiated with 10 Gy of X-ray. […] Cell extracts were adjusted and analyzed with Western Blot. […]

[2] = tested on: homologous recombination activity; experiment: Assay for site-specific homologous recombination activity (ASHRA); settings: HeLa cells, siRNA of control, BRCA1 or RAD51; 48 hours of culture with drug
Method: HeLa cells were seeded on a 3.5 cm dish, and the next day, siRNA was introduced. After 24 hours of culture from the introduction of siRNA, LentiCRISPRv2-ACTB-C1 and pBS-ACTB-200 GFPfr1 (vector for ASHRA measurement) were introduced, and Nicaraven was added at the same time. After further culturing for 48 hours, genomic DNA was purified using Blood Genomic DNA Extraction Mini Kit (Favorgen, Ping-tung, Taiwan). Genome quantitative PCR was performed using Go Taq qPCR master mix (Promega, Madison, WI, USA), measurement was done using CFX96 Touch Real-time PCR detection system (BioRad, Hercules, CA, USA), and knock-in efficiency was calculated by ΔΔCt method. Sequences of a primer for detecting a knock-in allele and a primer for detecting a reference allele are shown below. • For knock-in allyl detection • Forward […] • Reverse […] • For reference allyl detection • Forward […] • Reverse […] • Reference paper: NPL 2.
After 24 hours, a vector for measurement of homologous recombination activity was introduced, and Nicaraven was added. After 48 hours of culture, DNA was collected and homologous recombination activity was measured.
The homologous recombination ability was analyzed by Assay for site-specific homologous recombination activity (ASHRA) (Yoshino et al. Scientific Reports 2019, method shown in Fig. 5).

γ-H2AX [3] = experiment: γ-H2AX intranuclear foci immunostaining after ionizing radiation (DNA repair process); settings: drug 30 minutes before 1.5 Gy of X-ray, 24 hours after irradiation
Method: After cell seeding, Nicaraven was added. After 30 minutes, the cells were irradiated with 1.5 Gy of X-ray, and after 2 hours and 24 hours, the cells were fixed and immunostained with an anti-γ-H2AX antibody.
Cells in which five or more γ-H2AX intranuclear foci were observed were counted, and the ratio was calculated and represented in a graph. Respective cells in which less than 5, 5 or more and less than 10, 10 or more and less than 20, and 20 or more γ-H2AX intranuclear foci were observed were counted, and the ratio was calculated and represented in a graph (Fig. 3D).
After IR, more γ-H2AX intranuclear foci are observed in multiple cells in 2 hours. After 24 hours, DNA double strand break is repaired, reducing the number of cells having intranuclear foci and the number of intranuclear foci per cell. Suppression of expression of RAD51 suppressed DNA damage repair. […] It is considered that more DNA damage was formed due to PARP inhibitory action. The measurement of nuclear focus of γ-H2AX 24 hours after X-ray irradiation in this example is a result in a cell having a fast cell cycle.

[4] = HeLa cells with expression of BRCA1 and RAD51 suppressed by siRNA, compared with control siRNA

CC(CNC(=O)c1cccnc1)NC(=O)c1cccnc1 (stereo not shown) [Nicaraven] was tested, and the cell viability (KYSE270 cells) was “cell viability further decreased”, the cell viability (KYSE30 cells) was “cell viability decreased” and the cell viability (HeLa cells; [4]) was “cell viability further decreased”. The cell viability (HeLa cells; HeLa cells, drug added 24 hours after siRNA) was “decreased cell viability in a concentration-dependent manner”, the “amount of γ-H2AX” value (γ-H2AX [1]) was “reduced” and the homologous recombination activity [2] was “did not affect the homologous recombination ability”. For the same compound, the “γ-H2AX intranuclear foci (DNA damage remaining)” value (γ-H2AX [3]; HeLa cells with expression of RAD51 suppressed, compared with control) was “DNA damage remained more remarkably” and the “γ-H2AX intranuclear foci (DNA damage remaining)” value (γ-H2AX [3]; HeLa cells, control and RAD51 siRNA) was “caused DNA damage to remain”.
In the case of O=C(c1cc(Cc2n[nH]c(=O)c3ccccc23)ccc1F)N1CCN(C(=O)C2CC2)CC1 [Olaparib], the cell viability (KYSE270 cells) was “decreased cell viability” and the cell viability (HeLa cells; [4]) was “decreased cell viability”.
